# Source: patent US7157594B2, “6-Fluorobicyclo[3.1.0]hexane derivatives” (Taisho Pharmaceutical Co., Ltd., priority 2001, dated 2007)
# Where two headings read alike, the source gives them in different places.
# Key:
# [1] = biological target: T1, metabotropic glutamate receptor mGluR2 (Rattus norvegicus, UniProt P31421); assay: Antagonistic effect on glutamic acid-induced inhibition of forskolin-stimulated cAMP accumulation in CHO cells stably expressing mGluR2; type: cell-based
# T1 construct: expressed in transfected cells
# Experimental: Antagonistic Effect of Test Drugs on cAMP Accumulation in CHO Cells Modified to Stably Express Metabotropic Glutamate Receptor mGluR2
# Using Dulbecco's modified Eagle's medium with 10% dialyzed fetal bovine serum [1% proline, 50 units/ml penicillin, 50 μg/ml streptomycin, 2 mM L-glutamine (added before use)], CHO cells modified to stably express metabotropic glutamate receptor mGluR2 were seeded in 96-well plates at a ratio of 1.26×10^4 cells/well/0.32 cm^2/150 μl and grown at 37° C. under 5% CO2 for 2 days. The medium was then replaced by L-glutamine-free medium, and after 4 hours, the supernatant was removed by aspiration. PBS(+)-IBMX (10 mM PBS(−), 1 mM MgCl2, 1 mM CaCl2, 1 mM IBMX) was added in 150 μl aliquots and the plates were incubated for 20 minutes at 37° C. under 5% CO2. […] The dried samples were assayed for cAMP levels using a cAMP EIA kit (Amersham). The value of control samples was subtracted from each measured cAMP level.
# [2] = test system: male SD rats; assay: Antidepressant effect by forced swimming test in rats; type: in vivo, rat; details: two i.p. injections (24 hours and 1 hour before) at 0.3, 1 or 3 mg/kg, compared to solvent group, Dunnett's test, FIGS. 1 and 2
# Experimental: Evaluation of Antidepressant Effect by Forced Swimming Test in Rats
# • (1) The animals used for this experiment were male SD rats (body weigh: 220–240 g, Charles River Japan). • (2) The test drugs used were:
# Namely, the rats were placed in a cylinder containing water 30 cm deep and forced to swim for 15 minutes. After a period of 24 hours, the rats were forced again to swim for 5 minutes (actual experiment). The immobility time in this actual experiment was measured for each rat to evaluate the antidepressant effect of test drugs.
# The test groups received two intraperitoneal injections (24 hours and 1 hour before the actual experiment) of LY341495 or Compound 34 in 1/15 M phosphate buffer at a dose of 0.3 mg/kg, 1 mg/kg or 3 mg/kg. The solvent group received only 1/15 M phosphate buffer by intraperitoneal route. • (4) The symbols * and ** in FIGS. 1 and 2 denote statistical significance at P<0.05 and P<0.01 by Dunnett's test, respectively, when compared to the solvent group receiving 1/15 M phosphate buffer.
# [3] = 30 μM glutamic acid, 10^-5 M forskolin
# [4] = read-out: IC50, concentration required for 50% antagonism of inhibitory effect of 30 μM glutamic acid on 10^-5 M forskolin-stimulated cAMP level
# T1 sequence (P31421 19-872): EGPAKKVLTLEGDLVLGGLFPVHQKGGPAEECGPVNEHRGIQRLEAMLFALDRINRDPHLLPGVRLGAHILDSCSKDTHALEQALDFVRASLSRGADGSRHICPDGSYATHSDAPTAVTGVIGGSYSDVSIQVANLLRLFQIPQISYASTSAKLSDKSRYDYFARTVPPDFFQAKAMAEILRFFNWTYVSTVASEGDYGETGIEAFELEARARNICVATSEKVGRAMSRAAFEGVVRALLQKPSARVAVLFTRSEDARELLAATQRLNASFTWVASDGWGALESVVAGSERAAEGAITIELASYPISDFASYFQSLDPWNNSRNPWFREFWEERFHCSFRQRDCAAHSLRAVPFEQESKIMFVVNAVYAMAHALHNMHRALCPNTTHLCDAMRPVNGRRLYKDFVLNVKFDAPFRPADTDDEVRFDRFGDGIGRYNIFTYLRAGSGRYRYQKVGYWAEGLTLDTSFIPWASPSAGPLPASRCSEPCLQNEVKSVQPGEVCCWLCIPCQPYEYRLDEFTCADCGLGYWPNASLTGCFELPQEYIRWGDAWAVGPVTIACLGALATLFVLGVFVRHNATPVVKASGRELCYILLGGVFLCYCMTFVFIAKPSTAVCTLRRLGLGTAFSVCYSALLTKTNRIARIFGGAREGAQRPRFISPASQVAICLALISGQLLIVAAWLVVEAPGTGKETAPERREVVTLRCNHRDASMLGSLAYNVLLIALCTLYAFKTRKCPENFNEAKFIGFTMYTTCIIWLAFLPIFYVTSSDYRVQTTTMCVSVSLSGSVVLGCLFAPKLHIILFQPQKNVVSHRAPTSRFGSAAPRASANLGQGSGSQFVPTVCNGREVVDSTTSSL
SMILES,melting point [°C],"IC50 [1, 3] [nM]","IC50 [1, 4] [nM]",immobility time in forced swimming test [2]
"C=CCO[C@@H]1C[C@@H]2[C@H]([C@]1(N)C(=O)O)[C@@]2(F)C(=O)O [Compound 5, (1R,2R,3R,5R,6R)-2-Amino-3-(2-propenyloxy)-6-fluorobicyclo[3.1.0]hexane-2,6-dicarboxylic acid]",> 248,,,
NC1(C(=O)O)C(OCc2ccc(F)c(F)c2)CC2C1C2(F)C(=O)O (stereo not drawn) [Compound 28],,40.8,,
N[C@]1(C(=O)O)[C@H]2[C@@H](C[C@H]1OCc1ccc(Cl)cc1)[C@]2(F)C(=O)O [Compound 22],> 220,,29.1,
CC(O[C@@H]1C[C@@H]2[C@H]([C@]1(N)C(=O)O)[C@@]2(F)C(=O)O)c1ccc2ccccc2c1 (relative stereo) [57],> 185,,,
CCOC(=O)[C@@]1(N)[C@H]2[C@@H](C[C@H]1OCc1ccc(Cl)c(Cl)c1)[C@]2(F)C(=O)O,> 233,,,
"N[C@](CC1c2ccccc2Oc2ccccc21)(C(=O)O)[C@H]1C[C@@H]1C(=O)O [LY341495, (2S)-2-amino-2-((1S,2S)-2-carboxycycloprop-1-yl)-3-(9-xanthyl)propionic acid, reference compound]",,,,significant dose-dependent reduction in immobility time
Nc1cccc(CO[C@@H]2C[C@@H]3[C@H]([C@]2(N)C(=O)O)[C@@]3(F)C(=O)O)c1 (hydrate or solvate),> 190,,,
CC(O[C@@H]1C[C@@H]2[C@H]([C@]1(N)C(=O)O)[C@@]2(F)C(=O)O)c1ccc2ccccc2c1 (relative stereo) [58],> 188,,,
"N[C@]1(C(=O)O)[C@H]2[C@@H](C[C@H]1OCc1ccc(Cl)c(Cl)c1)[C@]2(F)C(=O)O [Compound 34, (1R,2R,3R,5R,6R)-2-amino-3-(3,4-dichlorobenzyloxy)-6-fluorobicyclo[3.1.0]hexane-2,6-dicarboxylic acid]",,,20,significant dose-dependent reduction in immobility time

# Continued, in another order:
melting point [°C],"IC50 [1, 3] [nM]","IC50 [1, 4] [nM]",SMILES,immobility time in forced swimming test [2]
> 230,24.4,,NC1(C(=O)O)C(OC(c2ccccc2)c2ccccc2)CC2C1C2(F)C(=O)O (stereo not drawn) [Compound 52],
> 199,,229,"CO[C@@H]1C[C@@H]2[C@H]([C@]1(N)C(=O)O)[C@@]2(F)C(=O)O [Compound 1, (1R,2R,3R,5R,6R)-2-amino-3-methoxy-6-fluorobicyclo[3.1.0]hexane-2,6-dicarboxylic acid]",
> 210,22.7,,NC1(C(=O)O)C(OCc2ccc3ccccc3c2)CC2C1C2(F)C(=O)O (stereo not drawn) [Compound 42],
> 170,,,CCCC(C)OC1C[C@@H]2[C@@H]([C@@]2(F)C(=O)O)[C@]1(N)C(=O)O (stereo partly drawn) [Compound 44],
> 171,,,COC1C[C@@H]2[C@@H]([C@@]2(F)C(=O)O)[C@]1(N)C(=O)O (stereo partly drawn) [Compound 2],
> 226,131,,NC1(C(=O)O)C(OCc2ccccc2)CC2C1C2(F)C(=O)O (stereo not drawn) [Compound 6],
